From ChEMBL document CHEMBL1201862, “PubChem BioAssay data set” (2004)
Calls of active or inactive are those of the source.

Key:
[1] = molecular target: Alkaline phosphatase, placental type (Homo sapiens, UniProt P05187); assay: human placental alkaline phosphatase inhibition – biochemical, luminescence, confirmation (AID 1512); type: functional
Genome polyprotein = Genome polyprotein (dengue virus type 2, UniProt P29990); assay: flavivirus cap methylation enzyme inhibition – biochemical, confirmation dose response, primary screen (AID 588689); type: functional
Sequence of Genome polyprotein (P29990 2492-3391 limits assumed): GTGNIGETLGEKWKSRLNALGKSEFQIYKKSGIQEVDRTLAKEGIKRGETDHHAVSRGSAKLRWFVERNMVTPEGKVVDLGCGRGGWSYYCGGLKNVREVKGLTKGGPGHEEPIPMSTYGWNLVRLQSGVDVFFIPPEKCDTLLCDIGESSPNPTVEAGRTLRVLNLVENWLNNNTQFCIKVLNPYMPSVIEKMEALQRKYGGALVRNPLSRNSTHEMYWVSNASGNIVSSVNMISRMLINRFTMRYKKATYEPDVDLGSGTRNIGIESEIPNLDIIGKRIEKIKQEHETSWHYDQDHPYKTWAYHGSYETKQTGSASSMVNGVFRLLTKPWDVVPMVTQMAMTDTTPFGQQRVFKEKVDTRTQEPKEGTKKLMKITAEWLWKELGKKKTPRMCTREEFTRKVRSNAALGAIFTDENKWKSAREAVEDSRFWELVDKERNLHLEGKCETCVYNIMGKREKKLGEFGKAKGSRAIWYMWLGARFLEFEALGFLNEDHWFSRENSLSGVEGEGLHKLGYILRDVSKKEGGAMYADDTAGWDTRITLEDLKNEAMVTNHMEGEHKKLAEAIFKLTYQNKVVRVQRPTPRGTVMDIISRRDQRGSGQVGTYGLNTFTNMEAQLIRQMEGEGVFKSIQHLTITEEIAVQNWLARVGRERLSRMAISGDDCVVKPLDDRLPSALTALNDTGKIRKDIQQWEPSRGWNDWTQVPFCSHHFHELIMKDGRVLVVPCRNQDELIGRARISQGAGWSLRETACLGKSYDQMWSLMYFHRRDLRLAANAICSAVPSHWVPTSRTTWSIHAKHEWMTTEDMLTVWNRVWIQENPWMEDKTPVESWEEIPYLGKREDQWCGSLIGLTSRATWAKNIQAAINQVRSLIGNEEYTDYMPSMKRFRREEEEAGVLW

Hexokinase HKDC1 = molecular target: T1, Hexokinase HKDC1 (Homo sapiens, UniProt Q2TB90); assay: inhibition of HKDC1 glucose phosphorylation – biochemical, W721R variant, dose response (AID 504729); type: functional
T1 sequence (Q2TB90 whole entry): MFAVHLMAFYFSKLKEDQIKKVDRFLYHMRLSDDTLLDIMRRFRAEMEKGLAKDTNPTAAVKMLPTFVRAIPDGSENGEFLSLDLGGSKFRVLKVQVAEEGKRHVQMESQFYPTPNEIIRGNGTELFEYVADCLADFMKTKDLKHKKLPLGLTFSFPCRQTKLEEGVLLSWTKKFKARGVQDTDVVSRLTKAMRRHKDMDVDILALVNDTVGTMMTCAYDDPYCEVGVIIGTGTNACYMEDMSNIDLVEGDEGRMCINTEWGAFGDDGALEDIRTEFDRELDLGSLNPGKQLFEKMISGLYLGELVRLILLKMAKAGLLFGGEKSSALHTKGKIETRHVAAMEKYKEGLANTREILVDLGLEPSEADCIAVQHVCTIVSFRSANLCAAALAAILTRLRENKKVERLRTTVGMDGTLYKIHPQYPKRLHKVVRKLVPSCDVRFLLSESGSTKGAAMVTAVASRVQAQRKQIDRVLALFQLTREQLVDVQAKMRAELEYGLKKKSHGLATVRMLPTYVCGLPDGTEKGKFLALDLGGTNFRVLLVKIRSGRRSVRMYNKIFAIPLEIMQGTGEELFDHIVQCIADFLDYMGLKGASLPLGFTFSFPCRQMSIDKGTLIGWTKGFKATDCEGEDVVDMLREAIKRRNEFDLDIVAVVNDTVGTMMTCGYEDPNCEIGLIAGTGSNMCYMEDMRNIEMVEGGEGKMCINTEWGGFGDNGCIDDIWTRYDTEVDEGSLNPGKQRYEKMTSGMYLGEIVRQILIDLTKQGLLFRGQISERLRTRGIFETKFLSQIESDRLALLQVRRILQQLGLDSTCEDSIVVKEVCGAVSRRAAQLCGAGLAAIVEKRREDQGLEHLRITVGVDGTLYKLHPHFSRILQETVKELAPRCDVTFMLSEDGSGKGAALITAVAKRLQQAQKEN

[2] = molecular target: T2, Replicative DNA helicase DnaB (Mycobacterium tuberculosis, UniProt P9WMR3); assay: DnaB intein splicing inhibitors, dose response, biochemical, cell-free fluorescence (AID 449749); type: functional
T2 sequence (P9WMR3 whole entry): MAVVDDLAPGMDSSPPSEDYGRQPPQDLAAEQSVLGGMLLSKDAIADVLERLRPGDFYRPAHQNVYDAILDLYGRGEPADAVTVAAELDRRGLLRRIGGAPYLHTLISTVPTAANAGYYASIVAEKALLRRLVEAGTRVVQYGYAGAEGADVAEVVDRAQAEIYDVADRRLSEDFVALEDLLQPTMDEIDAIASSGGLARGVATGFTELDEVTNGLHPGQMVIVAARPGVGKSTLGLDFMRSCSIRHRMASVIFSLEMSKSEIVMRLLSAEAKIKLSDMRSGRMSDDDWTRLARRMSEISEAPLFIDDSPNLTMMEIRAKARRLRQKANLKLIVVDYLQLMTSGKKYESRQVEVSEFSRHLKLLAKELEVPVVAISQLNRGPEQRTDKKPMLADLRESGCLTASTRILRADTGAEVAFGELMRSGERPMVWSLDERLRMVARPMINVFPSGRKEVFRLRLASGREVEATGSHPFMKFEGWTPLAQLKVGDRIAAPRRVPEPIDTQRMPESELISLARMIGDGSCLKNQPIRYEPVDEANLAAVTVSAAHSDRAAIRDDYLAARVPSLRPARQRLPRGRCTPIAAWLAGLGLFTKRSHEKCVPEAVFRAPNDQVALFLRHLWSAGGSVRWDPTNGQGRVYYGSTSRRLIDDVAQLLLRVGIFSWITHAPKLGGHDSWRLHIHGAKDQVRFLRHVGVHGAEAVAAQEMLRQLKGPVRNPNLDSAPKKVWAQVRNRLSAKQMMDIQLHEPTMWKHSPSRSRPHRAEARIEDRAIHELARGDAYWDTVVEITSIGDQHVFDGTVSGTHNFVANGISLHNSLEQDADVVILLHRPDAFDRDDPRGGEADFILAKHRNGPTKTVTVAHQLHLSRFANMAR

[3] = molecular target: Induced myeloid leukemia cell differentiation protein Mcl-1 (Homo sapiens, UniProt Q07820); type: functional
Sequence of Induced myeloid leukemia cell differentiation protein Mcl-1 (Q07820 whole entry): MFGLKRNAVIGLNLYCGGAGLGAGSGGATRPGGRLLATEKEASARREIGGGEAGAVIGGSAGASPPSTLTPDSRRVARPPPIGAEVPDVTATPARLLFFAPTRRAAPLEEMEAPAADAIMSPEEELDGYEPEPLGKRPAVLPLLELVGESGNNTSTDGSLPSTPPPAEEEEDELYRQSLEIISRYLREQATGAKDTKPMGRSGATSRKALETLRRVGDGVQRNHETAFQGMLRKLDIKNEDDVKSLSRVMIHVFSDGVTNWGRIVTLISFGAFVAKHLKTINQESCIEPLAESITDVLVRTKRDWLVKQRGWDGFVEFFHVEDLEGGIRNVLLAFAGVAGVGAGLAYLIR

[4] = molecular target: Glucose-6-phosphate 1-dehydrogenase (Homo sapiens, UniProt P11413); assay: inhibition of Homo sapiens G6PD, dose series – biochemical, fluorescence, selectivity assay for P. falciparum G6PD inhibitor project, dose response (AID 504792); type: functional
Sequence of Glucose-6-phosphate 1-dehydrogenase (P11413 whole entry): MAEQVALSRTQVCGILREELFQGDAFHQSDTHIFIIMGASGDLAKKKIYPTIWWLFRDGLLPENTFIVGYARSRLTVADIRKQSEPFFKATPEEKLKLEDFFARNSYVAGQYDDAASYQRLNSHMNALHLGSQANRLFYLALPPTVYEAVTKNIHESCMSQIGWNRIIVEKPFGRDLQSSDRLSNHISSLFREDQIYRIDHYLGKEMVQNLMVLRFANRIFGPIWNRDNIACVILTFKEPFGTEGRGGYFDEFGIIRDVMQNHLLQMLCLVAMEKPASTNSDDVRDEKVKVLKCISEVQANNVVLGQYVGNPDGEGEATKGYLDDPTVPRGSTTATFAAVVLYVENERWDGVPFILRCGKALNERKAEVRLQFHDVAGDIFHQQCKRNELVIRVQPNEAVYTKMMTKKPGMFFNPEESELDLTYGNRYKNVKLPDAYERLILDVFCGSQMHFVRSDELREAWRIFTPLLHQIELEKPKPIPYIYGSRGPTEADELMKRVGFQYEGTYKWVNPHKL

Protein RecA = molecular target: T3, Protein RecA (Mycobacterium tuberculosis, UniProt P9WHJ3); assay: Fluorescence Cell-Free Homogeneous Dose Retest to Identify Inhibitors of RecA-Intein Splicing Activity. [Related pubchem assays (depositor defined):AID2097, AID2223, AID489010, AID492950]; type: functional
T3 sequence (P9WHJ3 whole entry): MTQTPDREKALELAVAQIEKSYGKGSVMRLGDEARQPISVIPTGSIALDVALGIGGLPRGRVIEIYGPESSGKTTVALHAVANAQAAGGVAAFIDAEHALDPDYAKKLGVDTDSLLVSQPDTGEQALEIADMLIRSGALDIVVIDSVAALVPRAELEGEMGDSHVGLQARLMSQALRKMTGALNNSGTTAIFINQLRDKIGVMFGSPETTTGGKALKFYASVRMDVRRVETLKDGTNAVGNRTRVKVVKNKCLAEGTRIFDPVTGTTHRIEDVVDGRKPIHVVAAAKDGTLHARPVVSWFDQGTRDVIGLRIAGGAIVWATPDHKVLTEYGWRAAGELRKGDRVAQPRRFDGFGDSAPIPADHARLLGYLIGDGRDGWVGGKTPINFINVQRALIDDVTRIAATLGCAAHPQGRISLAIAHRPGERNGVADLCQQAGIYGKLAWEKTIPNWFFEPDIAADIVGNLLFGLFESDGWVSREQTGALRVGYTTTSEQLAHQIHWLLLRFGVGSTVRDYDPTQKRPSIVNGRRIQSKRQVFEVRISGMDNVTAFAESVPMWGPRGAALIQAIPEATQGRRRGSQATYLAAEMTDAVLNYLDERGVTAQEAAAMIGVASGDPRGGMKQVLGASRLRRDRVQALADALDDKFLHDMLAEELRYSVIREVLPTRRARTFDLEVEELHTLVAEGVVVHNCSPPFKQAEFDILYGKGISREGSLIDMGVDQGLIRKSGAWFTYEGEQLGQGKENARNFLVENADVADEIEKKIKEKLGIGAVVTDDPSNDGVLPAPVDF

[5] = molecular target: Glyceraldehyde-3-phosphate dehydrogenase (Homo sapiens, UniProt P04406)
Sequence of Glyceraldehyde-3-phosphate dehydrogenase (P04406 whole entry): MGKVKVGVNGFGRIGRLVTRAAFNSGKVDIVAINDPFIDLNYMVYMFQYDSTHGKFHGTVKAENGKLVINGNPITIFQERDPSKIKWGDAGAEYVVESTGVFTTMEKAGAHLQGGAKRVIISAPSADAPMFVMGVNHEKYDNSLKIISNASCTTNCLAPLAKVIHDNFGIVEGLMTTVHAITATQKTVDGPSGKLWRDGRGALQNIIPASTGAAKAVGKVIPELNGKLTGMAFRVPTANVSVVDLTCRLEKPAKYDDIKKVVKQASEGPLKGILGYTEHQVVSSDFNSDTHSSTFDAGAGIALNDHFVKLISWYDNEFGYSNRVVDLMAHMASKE

[6] = molecular target: T4, Alkaline phosphatase, tissue-nonspecific isozyme (Homo sapiens, UniProt P05186); assay: potency against alkaline phosphatase TNAP – biochemical, luminescent, dose response, SAR follow-up (AID 1056)
T4 sequence (P05186 whole entry): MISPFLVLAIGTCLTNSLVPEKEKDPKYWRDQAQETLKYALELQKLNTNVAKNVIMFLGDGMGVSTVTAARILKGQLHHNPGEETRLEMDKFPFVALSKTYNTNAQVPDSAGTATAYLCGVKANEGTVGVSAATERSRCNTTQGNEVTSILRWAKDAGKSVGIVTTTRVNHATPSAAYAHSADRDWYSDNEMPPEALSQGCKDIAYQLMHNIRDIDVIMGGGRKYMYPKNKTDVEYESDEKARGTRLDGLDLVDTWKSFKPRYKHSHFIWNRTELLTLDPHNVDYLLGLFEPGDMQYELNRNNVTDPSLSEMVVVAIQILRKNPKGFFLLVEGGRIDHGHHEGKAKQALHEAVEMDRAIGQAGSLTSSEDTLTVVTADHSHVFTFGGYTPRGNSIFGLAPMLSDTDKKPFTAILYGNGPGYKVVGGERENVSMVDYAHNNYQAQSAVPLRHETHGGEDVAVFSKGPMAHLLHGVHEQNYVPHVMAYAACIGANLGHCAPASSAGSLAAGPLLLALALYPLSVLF

[7] = molecular target: Neurotensin receptor type 1 (Homo sapiens, UniProt P30989); type: functional;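 also: Image-based confirmatory dose-response assay measuring agonist activity at NTR1; NTR1-expressing U2OS osteosarcoma cells imaged for beta-arrestin GFP spot formation; agonist potency where compounds increase beta-arrestin recruitment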
Sequence of Neurotensin receptor type 1 (P30989 whole entry): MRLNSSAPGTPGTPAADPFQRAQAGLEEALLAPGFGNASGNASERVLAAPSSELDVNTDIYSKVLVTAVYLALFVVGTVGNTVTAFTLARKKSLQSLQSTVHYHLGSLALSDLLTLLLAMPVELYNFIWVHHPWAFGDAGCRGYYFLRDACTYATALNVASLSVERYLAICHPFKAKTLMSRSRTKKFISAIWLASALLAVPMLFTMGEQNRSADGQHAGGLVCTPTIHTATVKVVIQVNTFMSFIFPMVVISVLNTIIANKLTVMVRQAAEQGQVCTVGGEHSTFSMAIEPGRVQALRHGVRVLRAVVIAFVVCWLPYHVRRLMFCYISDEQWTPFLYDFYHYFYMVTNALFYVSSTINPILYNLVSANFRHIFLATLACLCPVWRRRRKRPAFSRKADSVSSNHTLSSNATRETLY

[8] = molecular target: Dual specificity protein phosphatase 3 (Homo sapiens, UniProt P51452); assay: inhibition constants for human DUSP3 – biochemical, colorimetric, SAR follow-up (AID 2004)
Sequence of Dual specificity protein phosphatase 3 (P51452 whole entry): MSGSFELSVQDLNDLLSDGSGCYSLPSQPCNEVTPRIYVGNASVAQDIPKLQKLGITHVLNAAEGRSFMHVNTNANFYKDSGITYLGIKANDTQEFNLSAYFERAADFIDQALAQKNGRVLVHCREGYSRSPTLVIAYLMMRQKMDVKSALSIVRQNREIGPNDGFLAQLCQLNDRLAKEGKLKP

Sequence of Alkaline phosphatase, placental type (P05187 whole entry): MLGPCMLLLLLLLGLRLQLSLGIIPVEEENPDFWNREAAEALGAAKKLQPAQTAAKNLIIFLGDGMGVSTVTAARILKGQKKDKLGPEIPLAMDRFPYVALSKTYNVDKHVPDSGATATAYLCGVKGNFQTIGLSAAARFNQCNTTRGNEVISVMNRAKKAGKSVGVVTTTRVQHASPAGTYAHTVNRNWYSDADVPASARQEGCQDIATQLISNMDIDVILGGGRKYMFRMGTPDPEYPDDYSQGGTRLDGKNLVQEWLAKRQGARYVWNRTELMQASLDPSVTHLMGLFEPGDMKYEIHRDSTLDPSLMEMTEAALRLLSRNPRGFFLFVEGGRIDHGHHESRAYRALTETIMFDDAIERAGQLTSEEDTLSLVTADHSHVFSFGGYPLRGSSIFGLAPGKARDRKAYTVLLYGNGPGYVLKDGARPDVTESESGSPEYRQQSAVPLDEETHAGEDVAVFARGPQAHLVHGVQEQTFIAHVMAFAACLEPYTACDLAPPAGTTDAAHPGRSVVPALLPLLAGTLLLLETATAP

COc1ccc(C(=O)NN=C(S)NC2CCCCC2)cc1OC
IC50 [1]: > 100 µM (inactive)

Cc1nc(COC(=O)c2cc(O)c3ccccc3c2O)cs1
IC50 (Genome polyprotein): 43.1 µM (active) | IC50 (Hexokinase HKDC1): 12.1 µM (active) | AC50 [2]: 24.7 µM (active) | IC50 [3]: 4.84 µM (active) | IC50 [4]: > 80 µM (inactive) | EC50 (Protein RecA): 5.24 µM (active)

O=S(=O)(Nc1cnc2ccccc2c1)c1ccccc1OC(F)(F)F
IC50 [5]: > 100 µM (not active) | IC50 [6]: 16.4 µM (active)

C[C@H](NC(=O)c1nc[nH]c1C(=O)Nc1cccc(Cl)c1)c1ccccc1
EC50 [7]: 24 µM (inactive)

S=C(S)N(CCN(Cc1cccs1)C(=S)S)Cc1cccs1
Ki [8]: 36.3 µM (inactive)

O=C(c1cc(-c2cc(F)c(Cl)cc2Cl)n[nH]1)N1CCCC1
IC50 [5]: > 100 µM (not active) | IC50 [1]: > 100 µM (inactive) | IC50 [6]: > 100 µM (inactive)
